According to patent publication US7897587B2, “Topical dermatological formulations and use thereof” (Nycomed US Inc., priority 2004, dated 2011):

Assay: Solubility of fluticasone propionate in propylene glycol, propylene carbonate and mixtures thereof
Type: physicochemical
Conditions: 25° C.
Experimental: In the drawing FIGURE this solubility data obtained at 25° C. is plotted as the dark line and the idealized (theoretical) solubility is plotted as the light line. In “ideal” solutions, the effect of each component is additive in a linear fashion. If solvent A has a property with a value of 50 and solvent B a value of 100 for the same property, an equal blend of A and B would be expected to give a value of 75 for that property. […] The lightly colored line represents “ideal” linear behavior. Since propylene glycol can solubilize about 10 times more drug than propylene carbonate, the “ideal” line slopes down strongly as we move from pure propylene glycol to pure propylene carbonate. […] Two important observations can be made.

Fluticasone propionate solubility (% propylene glycol/% propylene carbonate 0/100): 1.17 % w/w
Fluticasone propionate solubility (% propylene glycol/% propylene carbonate 12.5/87.5): 1.72 % w/w
Fluticasone propionate solubility (% propylene glycol/% propylene carbonate 25/75): 1.56 % w/w
Fluticasone propionate solubility (% propylene glycol/% propylene carbonate 50/50): 1.09 % w/w
Fluticasone propionate solubility (% propylene glycol/% propylene carbonate 75/25): 0.48 % w/w
Fluticasone propionate solubility (% propylene glycol/% propylene carbonate 100/0): 0.08 % w/w
Drug solubilized by propylene glycol relative to propylene carbonate (pure solvents): about 10 times
SMILES: CCC(=O)O[C@]1(C(=O)SCF)[C@H](C)C[C@H]2[C@@H]3C[C@H](F)C4=CC(=O)C=C[C@]4(C)[C@@]3(F)[C@@H](O)C[C@@]21C [Fluticasone propionate, 6α,9α-difluoro-17α(1-oxopropoxy)-11β-hydroxy-16α-methyl-3-oxo-androsta-1,4-diene-17β-carbothioic acid S-fluoromethyl ester]
Measured solubility compared with ideal (linear, theoretical) solubility (all propylene glycol/propylene carbonate mixtures): the measured solubility exceeds the ideal solubility
Measured solubility in blends compared with solubility in single solvent (blends containing about 99 to 45% propylene carbonate): the measured solubility exceeds the solubility in propylene glycol
